From patent EP4674425A1, “COMPOSITION FOR TREATING DIABETIC RETINOPATHY, COMPRISING PEPTIDE” (EyebioKorea, Inc., priority 2023, dated 2026)
Non-standard residues stand in square brackets, D forms with d. No end group written: not given here. Hyp = O=C(O)[C@@H]1C[C@@H](O)CN1; Aib = CC(C)(N)C(=O)O

Assays:
IL-1β [1] = test: Gene expression by real-time PCR in zebrafish diabetic retinopathy model; type: in vivo, zebrafish Tg[flk:EGFP]; details: corrected by GAPDH, eyeball mRNA, Figure 15
Description: (§1) Among the embryos obtained by mating adult zebrafish Tg[flk:EGFP], embryos expressing a fluorescent protein were selected and used. On the 6th day after fertilization, the embryos were treated with glucose and the peptide of the present invention (002-175) for 4 days, and then euthanized by adding 4 mg/ml of Tricane. The eyeballs were extracted, and RNA was extracted and analyzed using microarray. In addition, Trizol was added to the extracted eyeballs, and the tissue was homogenized to extract mRNA. The extracted mRNA was quantified using a NanoDrop spectrophotometer, and cDNA was synthesized using RNA with a purity of 1.8 or higher. The synthesized cDNA was subjected to polymerization reaction of SYBR Green Master Mix, primers, and genes, and the concentration of each gene was divided by GAPDH to obtain the corrected concentration of the gene.

ikkα = test: as above; type: in vivo, zebrafish Tg[flk:EGFP]; details: corrected by GAPDH, eyeball mRNA, Figure 15
Description: as §1

ikkβ = test: as above; type: in vivo, zebrafish Tg[flk:EGFP]; details: corrected by GAPDH, eyeball mRNA, Figure 15
Description: as §1

NF-kB [2] = test: as above; type: in vivo, zebrafish Tg[flk:EGFP]; details: corrected by GAPDH, eyeball mRNA, Figure 15
Description: as §1

MMP9 [3] = test: as above; type: in vivo, zebrafish Tg[flk:EGFP]; details: corrected by GAPDH, eyeball mRNA, Figure 15
Description: as §1

ikkγ = test: as above; type: in vivo, zebrafish Tg[flk:EGFP]; details: corrected by GAPDH, eyeball mRNA, Figure 15
Description: as §1

[4] = tested on: TUNEL positive cells in the inner nuclear layer (INL) of the retina; test: TUNEL assay in retinal tissue, zebrafish diabetic retinopathy model; type: in vivo; details: versus high glucose group, Figures 16 and 17
Description: (§2) On the 6th day after fertilization (6dpf, 6 days post-fertilization), zebrafish fry were fixed with 4% paraformaldehyde for 3-4 hours, and then treated with 30% sucrose, and treated overnight at 4°C. O.C.T blocks were made, and sections were performed, and then TUNEL staining and immunofluorescence (IF) staining were performed.

[5] = tested on: Streptozotocin (STZ) induced diabetic retinopathy mouse model; test: Electroretinography in streptozotocin induced diabetic retinopathy mouse model; type: in vivo, C57BL/6 mice; details: electroretinogram (ERG); eye drops (ED) twice a day for about 17 weeks; versus STZ model group; comparator aflibercept; Figure 3
Description: The streptozotocin induced mouse model is a type 1 diabetes mellitus model that induces diabetes mellitus by injecting the antibiotic streptozotocin (STZ) into the mouse's peritoneum to damage the beta cells that produce insulin in the pancreas. It is one of the models used in diabetic retinopathy research, and it is a model that can confirm the early stage of diabetic retinopathy from the time of onset of diabetes mellitus.
After fasting for 3-4 hours before administration, 8-week-old C57BL/6 mice were administered with streptozotocin (STZ) dissolved in Na-citrate buffer and buffer at a dose of 50 mg/kg intraperitoneally for 5 days. The drug used at this time was prepared immediately before administration and used quickly. One week after the last STZ intraperitoneal administration, blood glucose was measured, and only mice with blood glucose exceeding 250 mg/dL were determined to be diabetic mice and used in the experiment. The drug was administered as eye drops (ED) twice a day for about 17 weeks starting from the day after model production, and 10 µg was administered intraocularly (intravitreal injection, IVT) once a month. […] The retina was stimulated with a single white light to obtain a response value, and the amplitude from the trough of the a wave to the peak of the b wave was measured, which was evaluated as an index of retinal function.

[6] = tested on: vascular endothelial growth factor (VEGF); test: Western blot of retinal tissue, STZ induced diabetic retinopathy mouse model; type: in vivo, C57BL/6 mice; details: about 17 weeks of administration, versus STZ model group, Figure 7
Description: (§3) After fasting for 3-4 hours before administration, 8-week-old C57BL/6 mice were administered with streptozotocin (STZ) dissolved in Na-citrate buffer and buffer at a dose of 50 mg/kg intraperitoneally for 5 days. The drug used at this time was prepared immediately before administration and used quickly. One week after the last STZ intraperitoneal administration, blood glucose was measured, and only mice with blood glucose exceeding 250 mg/dL were determined to be diabetic mice and used in the experiment. The drug was administered as eye drops (ED) twice a day for about 17 weeks starting from the day after model production, and 10 µg was administered intraocularly (intravitreal injection, IVT) once a month. In order to evaluate the expression level of proteins in the retina, retinal tissue was separated from the extracted mouse eyes and treated with RIPA solution to extract proteins in the retina. Western blot was performed to evaluate the expression level of factors related to neovascularization and vascular permeability in the retina.

Akt [7] = test: as above; type: in vivo, C57BL/6 mice; details: about 17 weeks of administration, versus STZ model group, Figure 7
Description: as §3

VEGF = test: Immunofluorescence (IF) staining of zebrafish eye, diabetic retinopathy model; type: in vivo; details: outer nuclear layer (ONL) of the retina; versus high glucose group; Figures 16 and 17
Description: as §2

ZO-1 = test: as above; type: in vivo; details: tight junction protein; versus high glucose group; Figures 16 and 17
Description: as §2

GFAP = test: as above; type: in vivo; details: outer nuclear layer (ONL) of the retina; versus high glucose group; Figures 16 and 17
Description: as §2

[8] = tested on: zebrafish retinal blood vessels; test: Inhibition of retinal vasodilation in zebrafish diabetic retinopathy model (fluorescence microscopy); type: in vivo, zebrafish Tg[flk:EGFP]; details: Figures 12 and 13
Description: Among the embryos obtained by mating adult zebrafish Tg[flk:EGFP], embryos expressing a fluorescent protein were selected and used. On the 6th day after fertilization, the embryos were treated with glucose and the peptide of the present invention (002-175) for 4 days, and then euthanized by adding 4 mg/ml of Tricane. After fixing with 4% paraformaldehyde for 3 days, the eyeballs were separated using 3% trypsin, and the changes in the blood vessels in the separated eyeballs were observed using a fluorescence microscope.

[9] = tested on: vascular endothelial growth factor (VEGF); test: Western blot of retinal tissue, db/db mouse model; type: in vivo, db/db mice; details: eye drops three times a day (TID) for about 12 weeks, versus db/db mouse group, Figure 8
Description: (§4) The drug was administered as eye drops (ED) to 12-week-old db/db mice twice a day (BID) or three times a day (TID) for about 12 weeks. In order to evaluate the expression level of proteins in the retina, retinal tissue was separated from the extracted mouse eyes and treated with RIPA solution to extract proteins in the retina. Western blot was performed to evaluate the expression level of factors related to neovascularization and vascular permeability in the retina.

Akt [10] = test: Western blot of retinal tissue, db/db mouse model; type: in vivo, db/db mice; details: eye drops three times a day (TID) for about 12 weeks, versus db/db mouse group, Figure 9
Description: as §4

COX-2 = test: Western blot of retinal tissue, db/db mouse model; type: in vivo, db/db mice; details: eye drops three times a day (TID) for about 12 weeks, versus db/db mouse group, Figure 10
Description: as §4

JNK = test: Western blot of retinal tissue, db/db mouse model; type: in vivo, db/db mice; details: eye drops BID or TID for about 12 weeks, versus db/db mouse group, Figure 11
Description: as §4

IL-1β [11] = test: Gene expression by microarray in zebrafish diabetic retinopathy model; type: in vivo, zebrafish Tg[flk:EGFP]; details: eyeball RNA, 4 days treatment with glucose and peptide, Figure 14
Description: as §1

NF-kB [12] = test: as above; type: in vivo, zebrafish Tg[flk:EGFP]; details: eyeball RNA, 4 days treatment with glucose and peptide, Figure 14
Description: as §1

MMP9 [13] = test: as above; type: in vivo, zebrafish Tg[flk:EGFP]; details: eyeball RNA, 4 days treatment with glucose and peptide, Figure 14
Description: as §1

db/db mouse model = test: Electroretinography in db/db mouse model; type: in vivo, db/db mice; details: electroretinogram (ERG), Figure 4
Description: The drug was administered as eye drops (ED) to 12-week-old db/db mice twice a day (BID) or three times a day (TID) for about 12 weeks. In order to evaluate retinal function, the mice were dark-adapted for more than 12 hours before measuring electroretinogram (ERG), and then the mice were subjected to pupillary dilation and anesthetized, and electrodes were placed on the skin, tail, and cornea to measure ERG. The retina was stimulated with a single white light to obtain a response value, and the amplitude from the trough of the a wave to the peak of the b wave was measured, which was evaluated as an index of retinal function.

[14] = tested on: oxygen induced retinopathy (OIR) mouse model; test: Inhibition of neovascularity in oxygen induced retinopathy mouse model (Isolectin B4 flat mount, fluorescence imaging); type: in vivo; details: eye drops (ED) for 5 days from day 12 to day 16 after birth; versus OIR model group; positive control aflibercept IVT once on day 12; Figures 1 and 2
Description: In order to evaluate the efficacy of the peptide of the present invention in inhibiting neovascularity in an oxygen induced retinopathy (OIR) mouse model, an experiment was performed as follows.
After stabilizing the mice born with the mother (new born mice) for about 3 to 4 days, they were raised under 75% hyperoxic conditions for 5 days from day 7 to day 11 after birth. Thereafter, they were raised under normoxic conditions until day 17 after birth. Drugs were administered while they were raised under normoxic conditions. The peptide of the present invention (002-175) was administered as eye drops (ED) for 5 days from day 12 to day 16 after birth, and as a positive control group, aflibercept was administered intraocularly (intravitreal injection, IVT) once on day 12 after birth. Thereafter, the mouse eyes were extracted, fixed in 10% formalin for 1 hour, and then flat mounted. The retina was divided into four equal parts centered on the optic nerve, and treated with Isolectin B4 (1 mM CaCl2, 1:200) overnight (O/N). Thereafter, they were spread on a slide glass, sprayed with mounting solution, covered with a cover glass, and photographed under a fluorescence microscope. The fluorescence images of blood vessels in the retina were obtained, and the number and area of new blood vessels and the area of blood vessels were calculated using the imageJ program.

pericytes = test: Loss of pericytes in retinal blood vessels of db/db mice (elastase digest, PAS staining); type: in vivo; details: Figures 5 and 6
Description: In the early stage of nonproliferative diabetic retinopathy, blood flows into the tissue due to the loss of pericytes surrounding the capillaries, causing the macula to swell. Macular edema is a representative symptom of nonproliferative diabetic retinopathy in which the focus of objects becomes blurred, the field of vision darkens, and visual acuity temporarily decreases. Therefore, in order to evaluate the efficacy of the peptide of the present invention in inhibiting loss of pericytes, an experiment was performed as follows.
The drug was administered as eye drops (ED) to 12-week-old db/db mice twice a day (BID) or three times a day (TID) for about 12 weeks. In order to evaluate the state of blood vessels in the retina, the eyes of the extracted mice were fixed in 10% formalin for a week. Thereafter, the fixed eye tissue was treated with elastase to separate the retinal blood vessels and PAS staining was performed. The ratio of vascular endothelial cells and pericytes present in the blood vessel walls and the number of acellular blood vessels were quantified to evaluate the permeability of the blood vessels in the retina.

[15] = eye drops (ED) BID or TID for about 12 weeks, versus db/db mouse group
[16] = eye drops three times a day (TID) for about 12 weeks

[Hyp]GQE[Aib]LA [002-175] was tested, and the “gene expression of IL-1β” value (IL-1β [1]) was “decrease in the gene expression”, the “gene expression of ikkα” value (ikkα) was “decrease in the gene expression” and the “gene expression of ikkβ” value (ikkβ) was “decrease in the gene expression”. The “gene expression of NF-kB” value (NF-kB [2]) was “decrease in the gene expression”, the “gene expression of MMP9” value (MMP9 [3]) was “decrease in the gene expression” and the “gene expression of ikkγ” value (ikkγ) was “decrease in the gene expression”. The TUNEL positive cells [4] was “decrease in TUNEL positive cells”, the “amplitude of the a wave and the b wave” value [5] was “increase in the amplitude of the a wave and the b wave to a level similar to that of the group administered with aflibercept” and the “expression of vascular endothelial growth factor (VEGF)” value [6] was “decrease in the expression of vascular endothelial growth factor”. The “phosphorylation level of Akt” value (Akt [7]) was “decrease in the phosphorylation level of Akt”, the “expression of VEGF” value (VEGF) was “decrease in the expression of VEGF and GFAP” and the “expression of ZO-1” value (ZO-1) was “increase in expression and a recovery pattern”. For the same substance, the “expression of GFAP” value (GFAP) was “decrease in the expression of VEGF and GFAP”, the “diameter of retinal blood vessels” value ([8]; 100 µg/ml, 4 days, high glucose (130 mM glucose)) was “decrease in the diameter of retinal blood vessels to a level similar to that of the normal group” and the “diameter of retinal blood vessels” value ([8]; 200 µg/ml, 4 days, high glucose (130 mM glucose)) was “decrease in the diameter of retinal blood vessels to a level similar to that of the normal group”. The “diameter of retinal blood vessels” value ([8]; treated with glucose and peptide for 4 days from 6th day after fertilization, versus high glucose (130 mM glucose) group) was “decrease in the diameter of retinal blood vessels”, the “expression of vascular endothelial growth factor (VEGF)” value [9] was “decrease in the expression of vascular endothelial growth factor” and the “phosphorylation level of Akt” value (Akt [10]) was “decrease in the phosphorylation level of Akt”. For the same substance, the “expression of COX-2” value (COX-2) was “decrease in the expression of COX-2”, the “phosphorylation level of JNK” value (JNK) was “decrease in the phosphorylation level of JNK” and the “gene expression of IL-1β” value (IL-1β [11]) was “decrease in the gene expression”. For the same substance, the “gene expression of NF-kB” value (NF-kB [12]) was “decrease in the gene expression”, the “gene expression of MMP9” value (MMP9 [13]) was “decrease in the gene expression” and the “amplitude of the a wave and the b wave” value (db/db mouse model; [15]) was “increase in the amplitude of the a wave and the b wave”. The “amplitude of the a wave and the b wave, effect of TID compared with BID” value (db/db mouse model; [16]) was “more excellent effect compared to the group administered twice a day (BID)”, the “area of new blood vessels” value [14] was “decrease in the area of new blood vessels to a level similar to that of the group administered with aflibercept” and the pericytes (pericytes; [15]) was “inhibition of the decrease in pericytes”. The “pericytes, effect of TID compared with BID” value (pericytes; [16]) was “more excellent effect compared to the group administered twice a day (BID)”.
